Data published in PMC5107132 (European journal of pharmacology, 2016).
Marks after values point to notes of the source that are not given here.

What was measured:
[1] = test system: 50 other receptor and enzyme assays; assay: NIMH PDSP screen, 50 other receptor and enzyme assays
α1β3γ2 GABAA receptors = α1β3γ2 GABAA receptors (Rattus norvegicus, UniProt P18508+P62813); assay: Two-electrode voltage clamp in Xenopus oocytes, α1β3γ2; assay type: cell-based; details: whole range of in vivo free brain concentrations obtained
α2β3γ2 GABAA receptors = α2β3γ2 GABAA receptors (Rattus norvegicus, UniProt P18508+P23576); assay: Two-electrode voltage clamp in Xenopus oocytes, α2β3γ2; assay type: cell-based
α3β3γ2 GABAA receptors = α3β3γ2 GABAA receptors (Rattus norvegicus, UniProt P18508+P20236); assay: Two-electrode voltage clamp in Xenopus oocytes, α3β3γ2; assay type: cell-based
α5β3γ2 GABAA receptors = α5β3γ2 GABAA receptors (Rattus norvegicus, UniProt P18508+P19969); assay: Two-electrode voltage clamp in Xenopus oocytes, α5β3γ2; assay type: cell-based; details: concentrations approaching 100 nM; GABA EC3-5
non-α5GABAARs = assay: Two-electrode voltage clamp in Xenopus oocytes, non-α5 receptors; assay type: cell-based, rat; details: 100 nM effective concentration
[2] = In vitro hydrolytic stability study in rat plasma; assay type: in vitro ADME; details: for Total plasma concentration (in vitro metabolic stability): rat plasma 37 °C
[3] = Plasma protein and brain tissue binding; assay type: in vitro ADME, rat; details: rat
Wistar rats [4] = assay: Grip strength; assay type: in vivo, rat; details: for Grip strength, peak force of experimenter's pull necessary to overcome the animal's grip: 20 min before testing
Wistar rats [5] = assay: Rotarod test; assay type: in vivo, rat
Wistar rats [6] = assay: Intravenous pentylenetetrazole infusion test; assay type: in vivo, rat
Wistar rats [7] = assay: Amphetamine induced locomotor activity; assay type: in vivo, rat; details: 1, 2.5 and 10 mg/kg i.p.
Wistar rats [8] = assay: Elevated plus maze; assay type: in vivo, rat; details: 1 mg/kg to 10 mg/kg i.p., 5 min
α1β3γ2S GABAA receptors = α1β3γ2S GABAA receptors (Rattus norvegicus, UniProt P18508+P62813); assay: 3H-flunitrazepam competition binding, α1β3γ2S
α2β3γ2S GABAA receptors = α2β3γ2S GABAA receptors (Rattus norvegicus, UniProt P18508+P23576); assay: 3H-flunitrazepam competition binding, α2β3γ2S
α3β3γ2S GABAA receptors = α3β3γ2S GABAA receptors (Rattus norvegicus, UniProt P18508+P20236); assay: 3H-flunitrazepam competition binding, α3β3γ2S
α5β3γ2S GABAA receptors = α5β3γ2S GABAA receptors (Rattus norvegicus, UniProt P18508+P19969); assay: 3H-flunitrazepam competition binding, α5β3γ2S
[9] = Pharmacokinetic study, plasma and brain concentrations after i.p. injection
[10] = only at concentrations of about 100 nM and above
[11] = rat i.p., MP-III-022 2.5 mg/kg vs SH-053-2′F-R-CH3 10 mg/kg

C#Cc1ccc2c(c1)C(c1ccccc1F)=N[C@H](C)c1c(C(=O)NC)ncn1-2 [MP-III-022, (R)-8-Ethynyl-6-(2-fluorophenyl)-N,4-dimethyl-4H-benzo[f]imidazo[1,5-a][1,4]diazepine-3-carboxamide]
Activity in 50 other receptor and enzyme assays [1]: negligible activity
Modulatory actions at α1-containing GABAA receptors (α1β3γ2 GABAA receptors): lacked modulatory actions
Estimated potentiation at α2GABAARs (α2β3γ2 GABAA receptors; after the 15 mg/kg dose): 225%
Estimated potentiation at α2GABAARs (α2β3γ2 GABAA receptors; after the 20 mg/kg dose): 280%
Estimated potentiation at α2GABAARs (α2β3γ2 GABAA receptors; after the dose of 10 mg/kg): 138%
Modulatory activity at α2-containing receptors (α2β3γ2 GABAA receptors; [10]): weakly modulatory
Estimated potentiation at α3GABAARs (α3β3γ2 GABAA receptors; after the 15 mg/kg dose): 175%
Estimated potentiation at α3GABAARs (α3β3γ2 GABAA receptors; after the 20 mg/kg dose): 200%
Modulatory activity at α3-containing receptors (α3β3γ2 GABAA receptors; [10]): weakly modulatory
Potentiation at α5β3γ2 (α5β3γ2 GABAA receptors): above 300%
Effects (potentiation) on non-α5GABAARs (non-α5GABAARs): ≤ 150%
Total plasma concentration (in vitro metabolic stability) ([2]; 0 min): 0.5556 µM
Total plasma concentration (in vitro metabolic stability) ([2]; 30 min): 0.5402 ± 0.0146 µM
Total plasma concentration (in vitro metabolic stability) ([2]; 60 min): 0.5403 ± 0.0193 µM
Total plasma concentration (in vitro metabolic stability) ([2]; 120 min): 0.5472 ± 0.0007 µM
Total plasma concentration (in vitro metabolic stability) ([2]; 240 min): 0.5374 ± 0.0063 µM
In vitro metabolic stability during incubation in rat plasma ([2]; rat, plasma): excellent in vitro metabolic stability
remaining at 0 h, 0.2 μg/ml ([2]; rat, plasma): 100%
remaining at 0.5 h, 0.2 μg/ml ([2]; rat, plasma): 97.2%
remaining at 1 h, 0.2 μg/ml ([2]; rat, plasma): 97.2%
remaining at 2 h, 0.2 μg/ml ([2]; rat, plasma): 98.5%
remaining at 4 h, 0.2 μg/ml ([2]; rat, plasma): 96.7%
fraction unbound ([3]; brain tissue): 0.0661
fraction unbound ([3]; plasma): 0.135
Grip strength, peak force of experimenter's pull necessary to overcome the animal's grip (Wistar rats [4]; 1 mg/kg i.p.): 2.57 ± 0.08 kg/kg
Grip strength, peak force of experimenter's pull necessary to overcome the animal's grip (Wistar rats [4]; 2.5 mg/kg i.p.): 2.41 ± 0.28 kg/kg
Grip strength, peak force of experimenter's pull necessary to overcome the animal's grip (Wistar rats [4]; 10 mg/kg i.p.): 1.94 ± 0.22^b,d kg/kg
Grip strength, peak force of experimenter's pull necessary to overcome the animal's grip (Wistar rats [4]; 15 mg/kg i.p.): 1.86 ± 0.16^a kg/kg
Grip strength, peak force of experimenter's pull necessary to overcome the animal's grip (Wistar rats [4]; 20 mg/kg i.p.): 1.78 ± 0.16^c,d kg/kg
Dose at which the first muscle relaxant effect was observed (Wistar rats [4]; i.p., grip strength): 10 mg/kg
Rotarod, time remaining on the rod revolving at 15 rpm (Wistar rats [5]; 10 mg/kg i.p.): 180 s
Rotarod, time remaining on the rod revolving at 15 rpm (Wistar rats [5]; 15 mg/kg MP-III-022 in combination with 20 mg/kg XLi-093, i.p.): 74.61 ± 34.03 s
Rotarod, time remaining on the rod revolving at 15 rpm (Wistar rats [5]; 15 mg/kg i.p.): 69.09 ± 25.58 s
Rotarod, time remaining on the rod revolving at 15 rpm (Wistar rats [5]; 20 mg/kg i.p.): 6.67 ± 4.81 s
PTZ test, threshold dose of PTZ required to elicit seizures (Wistar rats [6]; 1 mg/kg i.p.): 60.99 ± 6.11 mg/kg PTZ
PTZ test, threshold dose of PTZ required to elicit seizures (Wistar rats [6]; 10 mg/kg i.p.): 50.99 ± 3.72 mg/kg PTZ
PTZ test, effect of treatment (one-way ANOVA) (Wistar rats [6]; 1 and 10 mg/kg i.p.): did not show a statistically significant effect
Locomotor activity during 20 min before amphetamine treatment (Wistar rats [7]): did not show any effect of treatment
Influence on amphetamine's effects (hyperlocomotion, 0.5 mg/kg amphetamine) (Wistar rats [7]; 60 min): lack of influence
Elevated plus maze, closed and total arm entries (Wistar rats [8]): did not affect
Elevated plus maze, percent of open arm entries (Wistar rats [8]): did not affect
Elevated plus maze, percent of open arm time (Wistar rats [8]): did not affect
Elevated plus maze, total distance traveled (Wistar rats [8]): did not affect
Ki (α1β3γ2S GABAA receptors): 0.85 ± 0.11 µM
Ki (α2β3γ2S GABAA receptors): 0.36 ± 0.056 µM
Estimated free concentration as % of Ki value for α2GABAARs (α2β3γ2S GABAA receptors; after the dose of 10 mg/kg): 19%
Ki (α3β3γ2S GABAA receptors): 0.66 ± 0.17 µM
Ki (α5β3γ2S GABAA receptors): 0.055 ± 0.017 µM
Selectivity in binding to α5GABAARs compared to α1-containing GABAA receptors (α5β3γ2S GABAA receptors; ratio of Ki values): 15 fold
Selectivity in binding to α5GABAARs compared to α2-containing GABAA receptors (α5β3γ2S GABAA receptors; ratio of Ki values): 6 fold
Selectivity in binding to α5GABAARs compared to α3-containing GABAA receptors (α5β3γ2S GABAA receptors; ratio of Ki values): 12 fold
Brain AUC (0 to 180 min) relative to SH-053-2′F-R-CH3 [9, 11]: 1.75 fold
Plasma AUC (0 to 180 min) relative to SH-053-2′F-R-CH3 [9, 11]: 2 fold
Brain free (estimated) concentration ([9]; rat, 1 mg/kg i.p., 20 min): 6.38 ± 0.80 nmol/kg
Brain free (estimated) concentration ([9]; rat, 2.5 mg/kg i.p., 20 min): 10.34 ± 3.33 nmol/kg
Brain total concentration ([9]; rat, 2.5 mg/kg i.p., 20 min): 156.46 ± 50.33 nmol/kg
Brain free (estimated) concentration ([9]; rat, 10 mg/kg i.p., 20 min): 68.12 ± 18.38 nmol/kg
Brain total concentration ([9]; rat, 10 mg/kg i.p., 20 min): 1030.52 ± 278.03 nmol/kg
Brain free (estimated) concentration ([9]; rat, 15 mg/kg i.p., 20 min): 317.57 ± 186.52 nmol/kg
Brain total concentration ([9]; rat, 15 mg/kg i.p., 20 min): 4804.44 ± 2821.77 nmol/kg
Brain free (estimated) concentration ([9]; rat, 20 mg/kg i.p., 20 min): 559.57 ± 58.58 nmol/kg
Brain total concentration ([9]; rat, 20 mg/kg i.p., 20 min): 8465.45 ± 886.18 nmol/kg
concentration at 20 min ([9]; rat, plasma, ip, 1 mg/kg, Plasma total concentration, 1 mg/kg i.p., 20 min): 0.0624 ± 0.00497 µM
